Assay results from ChEMBL document CHEMBL5360534, “Synthetic α-glucosidase inhibitors as promising anti-diabetic agents: Recent developments and future challenges” (Eur J Med Chem, 2023).
One block for each compound: values may come before it.

Assays:
[1] = Inhibition of alpha-glucosidase (unknown origin) using p-NPG as substrate assessed as inhibition constant preincubated with compound followed by substrate addition and measured by absorbance based analysis; parameters: species or system Homo sapiens
[2] = target: T1, Alpha-glucosidase (Saccharomyces cerevisiae S288c, UniProt P53341+P38158+P07265); experiment: Inhibition of Saccharomyces cerevisiae alpha-glucosidase using pNPG as substrate; assay type: protein assay
[3] = target: T1, Alpha-glucosidase; experiment: Competitive inhibition of Saccharomyces cerevisiae alpha-glucosidase using pNPG as substrate assessed as inhibition constant; assay type: protein assay
[4] = target: T1, Alpha-glucosidase; experiment: Inhibition of Saccharomyces cerevisiae alpha-glucosidase using pNPG as substrate by spectroscopic analysis; assay type: protein assay
[5] = Inhibition of alpha-glucosidase (unknown origin) using 4-nitrophenyl-[…]-D-glucopyranoside as substrate preincubated for 20 mins followed by substrate addition and measured after 1 hr by absorbance based analysis; parameters: species or system Homo sapiens
[6] = target: T1, Alpha-glucosidase; experiment: Non-competitive inhibition of Saccharomyces cerevisiae alpha-glucosidase using p-nitrophenyl-alpha-D-glucopyranoside as substrate assessed as inhibition constant preincubated for 15 mins followed by substrate addition and measured after 30 mins by spectrophotometric analysis; assay type: protein assay
[7] = target: T1, Alpha-glucosidase; experiment: Inhibition of Saccharomyces cerevisiae alpha-glucosidase using p-nitrophenyl-alpha-D-glucopyranoside as substrate preincubated for 15 mins followed by substrate addition and measured after 30 mins by spectrophotometric analysis; assay type: protein assay
[8] = target: T1, Alpha-glucosidase; experiment: Competitive inhibition of Saccharomyces cerevisiae alpha-glucosidase using p-nitrophenyl-alpha-D-glucopyranoside as substrate assessed as inhibition constant preincubated for 10 mins followed by substrate addition and measured after 20 mins by absorbance based analysis; assay type: protein assay
[9] = target: T1, Alpha-glucosidase; experiment: Inhibition of Saccharomyces cerevisiae alpha-glucosidase using p-nitrophenyl-alpha-D-glucopyranoside as substrate preincubated for 10 mins followed by substrate addition and measured after 20 mins by absorbance based analysis; assay type: protein assay
[10] = target: T1, Alpha-glucosidase; experiment: Inhibition of Saccharomyces cerevisiae alpha-glucosidase using p-nitrophenyl-alpha-D-glucopyranoside as substrate preincubated for 15 mins followed by substrate addition and measured after 30 mins by multiplate reader analysis; assay type: protein assay
[11] = target: T1, Alpha-glucosidase; experiment: Non-competitive inhibition of Saccharomyces cerevisiae alpha-glucosidase using p-nitrophenyl-alpha-D-glucopyranoside as substrate assessed as inhibition constant preincubated for 15 mins followed by substrate addition and measured after 30 mins by multiplate reader analysis; assay type: protein assay
[12] = target: T1, Alpha-glucosidase; experiment: Inhibition of Saccharomyces cerevisiae alpha-glucosidase using p-nitrophenyl-alpha-D-glucopyranoside as substrate preincubated with compound followed by substrate addition and measured after 30 mins by absorbance based analysis; assay type: protein assay
[13] = target: T1, Alpha-glucosidase; experiment: Inhibition of Saccharomyces cerevisiae alpha-glucosidase using p-nitrophenyl-alpha-D-glucopyranoside as substrate incubated for 15 mins by UV-visible spectrophotometric analysis; assay type: protein assay
[14] = (§1) Mixed-type inhibition of alpha-glucosidase (unknown origin) using p-nitropheny-alpha-D-glucopyranoside as substrate assessed as inhibition constant by measuring intercept versus drug/substrate concentration preincubated for 5 mins followed by substrate addition and measured after 10 mins by absorbance based microplate reader analysis; parameters: species or system Homo sapiens
[15] = as §1, with “secondary plot of 1/V” for “intercept”, “drug” for “drug/substrate”; parameters: species or system Homo sapiens
[16] = Inhibition of alpha-glucosidase (unknown origin) using p-nitrophenyl-alpha-D-glucopyranoside as substrate preincubated for 5 mins followed by substrate addition and measured after 10 mins by absorbance based microplate reader analysis; parameters: species or system Homo sapiens
[17] = Inhibition of alpha-glucosidase (unknown origin); parameters: species or system Homo sapiens
[18] = species on record: Rattus norvegicus; experiment: Anti-hyperglycemic activity against STZ-induced hyperglycemic rat model assessed as reduction in blood glucose level relative to control; assay type: functional; parameters: scale not given: the % may be the effect or the level left
[19] = test system: Saccharomyces cerevisiae; experiment: (§2) Potency index, ratio of acarbose IC50 to test compound IC50 for inhibition of Saccharomyces cerevisiae alpha-glucosidase type I using p-nitrophenyl-alpha-D-glucopyranoside as substrate preincubated for 10 mins followed by substrate addition and measured after 30 mins by absorbance based analysis; conditions: time 40.0 min
[20] = Inhibition of Saccharomyces cerevisiae alpha-glucosidase type I using p-nitrophenyl-alpha-D-glucopyranoside as substrate preincubated for 10 mins followed by substrate addition and measured after 30 mins by absorbance based analysis
[21] = Competitive inhibition of alpha-glucosidase (unknown origin) assessed as inhibition constant; parameters: species or system Homo sapiens
[22] = target: T1, Alpha-glucosidase; experiment: Un-competitive inhibition of Saccharomyces cerevisiae alpha-glucosidase using p-nitrophenyl glucopyranoside as substrate assessed as inhibition constant preincubated for 15 mins followed by substrate addition and measured after 20 mins by spectrophotometric analysis; assay type: protein assay
[23] = target: T1, Alpha-glucosidase; experiment: Inhibition of Saccharomyces cerevisiae alpha-glucosidase using p-nitrophenyl glucopyranoside as substrate preincubated for 10 mins followed by substrate addition and measured after 20 mins by spectrophotometric analysis; assay type: protein assay
[24] = target: T1, Alpha-glucosidase; experiment: Inhibition of Saccharomyces cerevisiae alpha-glucosidase using p-nitrophenyl-alpha-D-glucopyranoside as substrate preincubated for 10 mins followed by substrate addition and measured after 20 mins by absorbance based microplate reader analysis; assay type: protein assay
[25] = Inhibition of alpha-glucosidase (unknown origin) using p-nitrophenyl-alpha-D-glucopyranoside as substrate preincubated for 20 mins followed by substrate addition and measured after 30 mins by UV-visible spectrophotometric analysis; parameters: species or system Homo sapiens
[26] = target: Alpha-glucosidase (Saccharomyces cerevisiae S288c) (UniProt P53341+P38158+P07265); experiment: as §2, with “cerevisiae recombinant” for “cerevisiae”, “alpha-glucosidase” for “alpha-glucosidase type I”, “15” for “10”, “microplate reader” for “absorbance”; assay type: protein assay; conditions: time 45.0 min
[27] = target: T1, Alpha-glucosidase; experiment: Inhibition of Saccharomyces cerevisiae recombinant alpha-glucosidase using p-nitrophenyl-alpha-D-glucopyranoside as substrate preincubated for 15 mins followed by substrate addition and measured after 30 mins by microplate reader based analysis; assay type: protein assay
[28] = Inhibition of rat intestinal alpha-glucosidase assessed as inhibition constant
[29] = Inhibition of rat intestinal alpha-glucosidase
[30] = target: T1, Alpha-glucosidase; experiment: Inhibition of Saccharomyces cerevisiae alpha-glucosidase using p-nitrophenyl-[…]-D-glucopyranoside as substrate preincubated for 15 mins followed by substrate addition and measured after 15 mins by absorbance based microplate reader analysis; assay type: protein assay
[31] = target: T1, Alpha-glucosidase; experiment: Inhibition of Saccharomyces cerevisiae alpha-glucosidase using p-nitrophenyl glucopyranoside as substrate preincubated for 10 mins followed by substrate addition and measured after 30 mins by absorbance based microplate reader analysis; assay type: protein assay
[32] = Inhibition of alpha-glucosidase (unknown origin) using PNP glycoside as substrate preincubated for 30 mins followed by substrate addition and measured after 1 min by spectrophotometric analysis; parameters: species or system Homo sapiens
[33] = target: T1, Alpha-glucosidase; experiment: Inhibition of Saccharomyces cerevisiae alpha-glucosidase using p-nitrophenyl-alpha-D-glucopyranoside as substrate preincubated for 20 mins followed by substrate addition and measured after 30 mins by spectrophotometric analysis; assay type: protein assay
[34] = target: T1, Alpha-glucosidase; experiment: Inhibition of Saccharomyces cerevisiae alpha-glucosidase using p-nitrophenyl-alpha-D-glucopyranoside as substrate preincubated for 5 mins followed by substrate addition and measured after 30 mins by absorbance based microplate reader analysis; assay type: protein assay
[35] = target: T1, Alpha-glucosidase; experiment: Competitive inhibition of Saccharomyces cerevisiae alpha-glucosidase using p-nitrophenyl glucopyranoside as substrate assessed as inhibition constant preincubated for 15 mins followed by substrate addition and measured after 20 mins by spectrophotometric analysis; assay type: protein assay
[36] = target: T1, Alpha-glucosidase; experiment: Non-competitive inhibition of Saccharomyces cerevisiae alpha-glucosidase using p-nitrophenyl glucopyranoside as substrate assessed as inhibition constant preincubated for 15 mins followed by substrate addition and measured after 20 mins by spectrophotometric analysis; assay type: protein assay
[37] = Inhibition of alpha-glucosidase (unknown origin) using p-nitrophenyl-alpha-D-glucopyranoside as substrate preincubated for 10 mins followed by substrate addition and measured after 20 mins by absorbance based analysis; parameters: species or system Homo sapiens
[38] = species on record: Homo sapiens; experiment: Potency index, ratio of acarbose IC50 to test compound IC50 for inhibition of alpha-glucosidase (unknown origin) using p-nitrophenyl-alpha-D-glucopyranoside as substrate preincubated for 10 mins followed by substrate addition and measured after 20 mins by absorbance based analysis; conditions: time 30.0 min

Ki [1]: 0.0039 µM
SMILES: COc1c(C(=O)/C=C/c2ccc(Br)cc2)c(OC)c(C(=O)/C=C/c2ccc(Br)cc2)c(OC)c1C(=O)/C=C/c1ccc(Br)cc1

IC50 [2]: 27 µM | Ki [3]: 27 µM
SMILES: COc1cc(-c2[nH]c3ccccc3c2/C=N/NC(=S)Nc2ccccc2)cc(OC)c1OC

IC50 [4]: 0.02847 µM
SMILES: Brc1cccc(CSc2nnc(-c3ccc4nc(-c5ccccc5)c(-c5ccccc5)nc4c3)o2)c1

IC50 [5]: 115 µM
SMILES: Oc1ccccc1-c1cc(-c2ccc(C(F)(F)F)cc2)n(-c2ccccc2)n1

Ki [6]: 2.04 µM | IC50 [7]: 2.56 µM
SMILES: O=C(COc1ccc2ccc(=O)oc2c1)N/N=C1\C(=O)N(Cc2ccccc2F)c2ccc(Cl)cc21

Ki [8]: 71 µM | IC50 [9]: 75.6 µM
SMILES: Cc1ccc(NC(=O)Oc2ccc(-c3nc4ccccn4c3NC(C)(C)C)cc2)cc1

IC50 [10]: 22.1 µM | Ki [11]: 16.03 µM
SMILES: Oc1ccc(Br)cc1-c1nc2cc(Cl)ccc2s1

IC50 [12]: 2.1 µM
SMILES: CC1=NN(c2ccc([N+](=O)[O-])cc2)C(=O)/C1=C/c1cn(-c2ccccc2)nc1-c1cc2cc(Br)ccc2oc1=O

IC50 [13]: 32 µM
SMILES: OC[C@H]1O[C@H](OCc2cn(C[C@H]3O[C@@H]4O[C@H]5[C@H](O)[C@@H](O)[C@@H](O[C@H]6[C@H](O)[C@@H](O)[C@@H](O[C@H]7[C@H](O)[C@@H](O)[C@@H](O[C@H]8[C@H](O)[C@@H](O)[C@@H](O[C@H]9[C@H](O)[C@@H](O)[C@@H](O[C@H]%10[C@H](O)[C@@H](O)[C@@H](O[C@H]%11[C@H](O)[C@@H](O)[C@@H](O[C@H]3[C@H](O)[C@H]4O)O[C@@H]%11Cn3cc(CO[C@H]4O[C@H](CO)[C@@H](O)[C@H](O)[C@@H]4O)nn3)O[C@@H]%10Cn3cc(CO[C@H]4O[C@H](CO)[C@@H](O)[C@H](O)[C@@H]4O)nn3)O[C@@H]9Cn3cc(CO[C@H]4O[C@H](CO)[C@@H](O)[C@H](O)[C@@H]4O)nn3)O[C@@H]8Cn3cc(CO[C@H]4O[C@H](CO)[C@@H](O)[C@H](O)[C@@H]4O)nn3)O[C@@H]7Cn3cc(CO[C@H]4O[C@H](CO)[C@@H](O)[C@H](O)[C@@H]4O)nn3)O[C@@H]6Cn3cc(CO[C@H]4O[C@H](CO)[C@@H](O)[C@H](O)[C@@H]4O)nn3)O[C@@H]5Cn3cc(CO[C@H]4O[C@H](CO)[C@@H](O)[C@H](O)[C@@H]4O)nn3)nn2)[C@@H](O)[C@@H](O)[C@@H]1O

Ki [14]: 156 µM | Ki [15]: 34 µM | IC50 [16]: 50 µM
SMILES: O=C1CNC(=S)N1C(=O)c1cc([N+](=O)[O-])cc([N+](=O)[O-])c1

IC50 [17]: 561 µM
SMILES: COc1ccc(-n2c(SCC(=O)N/N=C/c3ccc(O)cc3)nc3ccccc3c2=O)cc1
Activity [18]: 43.07%

Ratio IC50 [19]: 1.98 | IC50 [20]: 19.3 µM
SMILES: Cc1nn(-c2ccc(Nc3cccc(Cl)c3)nn2)c(C)c1[N+](=O)[O-]

IC50 [17]: 2.2 µM | Ki [21]: 5.1 µM
SMILES: Cn1cnnc1SC(=O)c1ccc(-c2ccccc2Cl)o1

Ki [22]: 11 µM | IC50 [23]: 10.3 µM
SMILES: N#CC1=C(N)Oc2c(c(=O)[nH]c3c2ccc2ccccc23)C1c1ccc(Cl)cc1 (stereo unspecified)

IC50 [24]: 42.8 µM
SMILES: O=C1CS/C(=N\N=C\c2ccc(OS(=O)(=O)c3ccccc3[N+](=O)[O-])cc2)N1

IC50 [25]: 30 µM
SMILES: CCOC(=O)c1c(C)n(C2CC2)c2ccc(OCc3nnc(-c4ccc(O)cc4)[nH]3)cc12

Ratio IC50 [26]: 400 | IC50 [27]: 2 µM
SMILES: Cn1cc(-c2nnc(-c3ccc(C(c4cn(Cl)c5ccccc45)c4cn(Cl)c5ccccc45)cc3)o2)c2ccccc21

Ki [28]: 6.3 µM | IC50 [29]: 5.8 µM
SMILES: N[C@H]1[C@H](O)[C@@H](O)[C@H](O)[C@@H](CO)[C@@H]1CCO

IC50 [30]: 67 µM
SMILES: O=C1Nc2ccc([N+](=O)[O-])cc2C1(c1c[nH]c2ccc(O)cc12)c1c[nH]c2cccc(O)c12 (stereo unspecified)

IC50 [31]: 9.37 µM
SMILES: Cc1cccc(NC(=O)CSc2nnc(Cc3c[nH]c4ccccc34)o2)c1

IC50 [32]: 6.2 µM
SMILES: C(=N\Nc1nc(-c2ccc(-c3ccccc3)cc2)cs1)/c1cccc2ccccc12

IC50 [33]: 46.01 µM
SMILES: CC(C)=C(C)CSc1nnc(-c2cc(OCC(F)(F)F)ccc2OCC(F)(F)F)o1

IC50 [34]: 5.8 µM
SMILES: COc1cccc(NC(=O)Cn2nc3c(c2C)N(C)Sc2ccccc2-3)c1

Ki [35]: 78 µM | IC50 [23]: 80.3 µM
SMILES: O=C(Cn1cc(CNC(=O)c2c3ccccc3nc3ccccc23)nn1)Nc1cccc(Br)c1

Ki [36]: 28 µM | IC50 [23]: 15.7 µM
SMILES: N#CC1=C(N)Oc2c(c(=O)[nH]c3c2ccc2ccccc23)C1c1ccc(Br)cc1 (stereo unspecified)

IC50 [37]: 7.54 µM | Ratio IC50 [38]: 30
SMILES: N#CC(c1c[nH]c2ccc(Br)cc12)c1c[nH]c2ccc(Br)cc12
